Assay results as given in article PMC7707092, “Discovery and characterization of ORM‐11372, a novel inhibitor of the sodium‐calcium exchanger with positive inotropic activity” (British Journal of Pharmacology, 2020).
“And” between values parts separate entries of the source, which are not always exact repeats. Equal entries are not always repeated. Where two headings read alike, the source gives them in different places.

Columns and labels:
[1] = molecular target: hERG KV11.1 current (I hERG) (Homo sapiens, UniProt Q12809); assay: KV11.1 channel current (I hERG), manual patch‐clamp, CHO cells; format: cell-based
Experimental: CHO cells stably expressing either hERG1a (KV11.1) channels (KCNH2; RRID:CVCL_H512) or human 5‐HT2B receptors were cultured at 37°C in a 5% CO2/95% air atmosphere in the Ham's Nutrient Mixture F‐12 (HAM F‐12) medium supplemented with 10% FBS (heat inactivated), 100 μg·ml^−1 of hygromycin B (Invitrogen), and 100 μg·ml^−1 of geneticin or 100 IU·ml^−1 of penicillin and 100 IU·ml^−1 of streptomycin, 25‐mM HEPES, 500 μg·ml^−1 of geneticin, and 250 μg·ml^−1 of Zeocin®. Adhered cells were detached using either Detachin® solution or trypsin and replated twice a week. HEK 293 (RRID:CVCL_0045) and IMR‐32 cells (CCL‐127; RRID:CVCL_0346) were cultured similarly but maintained instead in DMEM, supplemented with 10% FBS (heat inactivated), 100 IU·ml^−1 of penicillin and 100 IU·ml^−1 of streptomycin, and 25‐mM HEPES, and in the case of the IMR‐32 cell line, with minimum essential medium (MEM) non‐essential amino acids. IMR‐32 cells are derived from a human neuroblastoma and endogenously express L‐type (CaV1.x) calcium channel (Sher, Gotti, Pandiella, Madeddu, & Clementi, 1988). […]
Values from hERG‐expressing cells (n = 4) were recorded with the standard extracellular solution at the physiological temperature and a pipette solution containing (in mM) 130 KCl, 7 NaCl, 5 EGTA, 1 MgCl2, 5 Na2ATP, and 5 HEPES (pH was set to 7.2 with KOH; osmolarity was adjusted to 290 ± 3 mOsm). […]

[2] = molecular target: T1, rat NCX 1.1 current (I NCX) (Rattus norvegicus, UniProt Q01728); assay: NCX current (I NCX), whole‐cell patch‐clamp in rat ventricular cardiomyocytes; format: cell-based
T1 construct: In rat primary ventricular CMs, the magnitude of outward I NCX; endogenous in cells; host or cells: freshly isolated left ventricular cardiomyocytes of male Wistar rats
Experimental: Rats were anaesthetized with sodium thiopental (0.1 g·kg^−1, i.p.) and injected with heparin sodium (500 IU, i.v.). Hearts were rapidly excised, mounted via the aorta on a Langendorff apparatus, and retrogradely perfused at 37°C with the Krebs–Henseleit solution for 5 min, with Krebs‐Henseleit solution (composition (in mM): 118.5 NaCl, 4 KCI, 2 CaCl2, 1 MgSO4, 1.2 NaH2PO4, 25 NaHCO3, and 11.1 glucose), pH 7.4 when saturated with a mixture of 95% O2 and 5% CO2. The perfusion of the heart was continued using Ca^2+‐free Krebs–Henseleit solution for 10 min, and completed by the addition of 0.05% collagenase (type I), 0.05% hyaluronidase, and 200‐μM CaCl2, for a further 10 min. Subsequently, the left ventricular myocardium was minced and gently agitated. Dissociated cells were stored at room temperature in a solution containing (in mM) 89 KOH, 70 glutamate, 15 taurine, 30 KCI, 10 KH2PO4,10 HEPES, 0.5 MgCl2, 11 glucose, and 0.5 EGTA, and the pH was set to 7.3 using KOH. […] One drop of the cell suspension was placed in a recording chamber and mounted on the stage of an inverted microscope (Olympus IX51, Olympus, Japan), and the individual myocytes were allowed to settle and adhere to the bottom of the chamber for at least 5 min before initiating superfusion.
Manual patch‐clamp recordings of membrane currents (I NCX, L‐type Ca^2+ channel current [I CaL], human cardiac sodium 1.5 current [I Na], and I hERG) were undertaken using either an Axopatch 200B or Axopatch ID amplifier (Molecular Devices, USA), using the whole‐cell configuration. Cells were at least initially (except when recording I Na) perfused with an extracellular solution consisting of (in mM) 143 NaCl, 4 KCl, 1.8 CaCl2, 1.2 MgCl2, 5 glucose, and 10 HEPES (pH 7.4 with NaOH; osmolarity adjusted to 301 ± 3 mOsm). A slightly modified version was used for the rat ventricular CMs (in mM: 144 NaCl, 0.4 NaH2PO4, 4.0 KCl, 1.8 CaCl2, 0.53 MgSO4, 5.5 glucose, and 5.0 HEPES). Patch pipettes were pulled with a P‐2000 or P‐97 micropipette puller (Sutter Instruments, USA) from borosilicate glass capillaries and had resistances of between 2 and 4 MΩ when filled with any of the pipette solutions (see below). The data were filtered at 1 or 2 kHz and digitized at 10 kHz with acquisition and analysis performed by use of pClamp software (Versions 8–10; Molecular Devices; RRID:SCR_011323).
After the establishment of the whole‐cell configuration with hiPSC‐derived CMs or rat ventricular myocytes, the extracellular solution was switched to a K^+‐free bath solution as described earlier (Hobai, Khananshvili, & Levi, 1997; Jost et al., 2013). The solution was composed of (in mM) 135 NaCl, 10 CsCl, 1 CaCl2, 1 MgCl2, 0.2 BaCl2, 0.33 NaH2PO4, 10 TEACI, 10 HEPES, and 10 glucose supplemented with 20‐μM ouabain, 50‐μM lidocaine, and 1‐μM nisoldipine or 2‐μM nitrendipine at pH 7.0 (osmolarity adjusted to 301 ± 3 mOsm). The pipette solution contained (in mM) 140 CsOH, 75 aspartic acid, 20 TEACI, 5 MgATP, 10 HEPES, 20 NaCl, 20 EGTA, and 10 CaCl2 (pH adjusted to 7.2 with CsOH; osmolarity adjusted to 290 ± 2 mOsm). The free intracellular Ca^2+ level in the patch pipette was 140 nM according to Maxchelator (RRID:SCR_000459) software (Bers, Patton, & Nuccitelli, 2010).
The measurement of current in the K^+‐free bath solution using a ramp voltage protocol at 20‐s intervals represented the first control, after which values were measured in the presence of one or more increasing concentrations of ORM‐11372 and finally upon exposure to 10‐mM NiCl2. The voltage protocol consisted of voltage ramps (at a rate of 100 mV·s^−1) with a holding potential of […], which changed to −100 mV and then returned to −40 mV. I NCX was defined as the Ni^2+‐sensitive current value. However, for rat ventricular myocytes, the magnitude of the inward current (forward mode) was particularly small and variable. […]

hERG KV11.1 current (I hERG), sequence (Q12809 whole entry): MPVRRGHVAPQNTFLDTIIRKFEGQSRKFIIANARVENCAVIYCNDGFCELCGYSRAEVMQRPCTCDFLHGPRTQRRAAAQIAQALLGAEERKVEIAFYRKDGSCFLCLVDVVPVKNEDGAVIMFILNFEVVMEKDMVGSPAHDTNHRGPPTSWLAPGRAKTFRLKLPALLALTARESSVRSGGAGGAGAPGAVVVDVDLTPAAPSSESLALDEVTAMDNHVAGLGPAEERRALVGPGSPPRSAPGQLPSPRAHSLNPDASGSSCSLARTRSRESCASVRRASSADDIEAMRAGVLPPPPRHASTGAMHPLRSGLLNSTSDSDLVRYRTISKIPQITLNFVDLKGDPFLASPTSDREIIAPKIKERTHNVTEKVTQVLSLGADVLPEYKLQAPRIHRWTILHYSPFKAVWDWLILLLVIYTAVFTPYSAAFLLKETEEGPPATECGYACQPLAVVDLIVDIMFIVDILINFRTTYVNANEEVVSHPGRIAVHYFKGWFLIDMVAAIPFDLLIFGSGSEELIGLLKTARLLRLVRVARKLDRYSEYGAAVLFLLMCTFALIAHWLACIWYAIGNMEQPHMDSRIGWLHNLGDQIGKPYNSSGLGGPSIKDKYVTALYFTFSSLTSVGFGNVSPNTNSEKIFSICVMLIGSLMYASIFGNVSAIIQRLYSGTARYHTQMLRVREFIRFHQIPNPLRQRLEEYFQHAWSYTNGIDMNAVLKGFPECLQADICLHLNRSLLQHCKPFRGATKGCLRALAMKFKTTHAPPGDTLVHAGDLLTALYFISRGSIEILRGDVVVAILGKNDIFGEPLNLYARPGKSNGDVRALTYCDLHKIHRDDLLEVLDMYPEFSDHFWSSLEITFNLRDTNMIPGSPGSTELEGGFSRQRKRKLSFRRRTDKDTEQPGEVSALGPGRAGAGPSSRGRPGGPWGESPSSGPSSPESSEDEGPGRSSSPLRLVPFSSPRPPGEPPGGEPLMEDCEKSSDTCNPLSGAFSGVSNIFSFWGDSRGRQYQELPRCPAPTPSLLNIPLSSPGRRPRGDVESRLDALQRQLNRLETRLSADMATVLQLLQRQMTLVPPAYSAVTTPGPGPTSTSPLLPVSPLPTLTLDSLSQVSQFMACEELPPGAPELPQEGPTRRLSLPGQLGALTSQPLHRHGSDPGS

## Nc1cccc(-c2ccc(CNc3ccc(F)cc3)o2)c1 [ORM‐11372]
[1]
  safety margin (ratio), I NCX over Kv11.1 current: ≥ 2,000
[1]; manual patch‐clamp, physiological temperature
  IC50: 10000 nM
[2]; 4 nM, read-out: in vitro NCX 1.1 current inhibition
  inhibition at 0.004 µM: 34%
[2]; 36 nM, read-out: in vitro NCX 1.1 current inhibition
  inhibition at 0.036 µM: 67%
[2]; 92 nM, read-out: in vitro NCX 1.1 current inhibition
  inhibition at 0.092 µM: 79%
[2]; 351 nM, read-out: in vitro NCX inhibition
  inhibition at 0.351 µM: 90%
[2]; rat CMs, summarised (discussion), read-out: IC50 rat NCX 1.1 currents
  IC50: 10 nM
[2]; rat primary ventricular CMs, read-out: IC50 outward I NCX (reverse mode)
  IC50: 11.3 nM and 11 nM
[2]; rat ventricular CMs, 10 nM, altered conditions to enhance inward current, n=3, read-out: inhibition of inward I NCX (forward mode)
  inhibition at 0.01 µM: 53.8 ± 3.9%
